Assay results: patent US8653276B2 (SANOFI, priority 2008, dated 2014)
Structures can show the parent of a compound that is named as a salt.

Row | melting point | SMILES
1 | 118 °C | COC(=O)C1(NC(=O)c2cnc(-c3ccc(C)cc3C)c(-c3ccc(Cl)c(OCCCN(C)C)c3)n2)CCCCC1 (as salt: hydrochloride) [Compound 20, methyl 1-({[6-{4-chloro-3-[3-(dimethylamino)propoxy]phenyl}-5-(2,4-dimethylphenyl)pyrazin-2-yl]carbonyl}amino)cyclohexanecarboxylate]
2 | 270 °C | COC(=O)C1(NC(=O)c2ccc(-c3ccc(O)cc3C)c(-c3ccc(Cl)c(OCCCN(C)C)c3)n2)CCCCC1 (as salt: hydrochloride) [Compound 2, methyl 1-({[6-{4-chloro-3-[3-(dimethylamino)propoxy]phenyl}-5-(4-hydroxy-2-methylphenyl)pyridin-2-yl]carbonyl}amino)cyclohexanecarboxylate]
3 | 176 °C | COC(=O)C1(NC(=O)c2ccc(-c3ncc(C)cc3C)c(-c3ccc(Cl)c(OCCCN(C)C)c3)n2)CCCCC1 (as salt: hydrochloride) [Compound 13, methyl 1-{[(2′-{4-chloro-3-[3-(dimethylamino)propoxy]phenyl}-3,5-dimethyl-2,3′-bipyridin-6′-yl)carbonyl]amino}cyclohexanecarboxylate]
4 | 115 °C | COC(=O)C1(NC(=O)c2ccc(-c3ccccc3C)c(-c3ccc(Cl)c(OCCCN(C)C)c3)n2)CCCCC1 (as salt: hydrochloride) [Compound 4, methyl 1-({[6-{4-chloro-3-[3-(dimethylamino)propoxy]phenyl}-5-(2-methylphenyl)pyridin-2-yl]carbonyl}amino)cyclohexanecarboxylate]
5 | 168 °C | COC(=O)C1(NC(=O)c2ccc(-c3ncc(Cl)cc3Cl)c(-c3ccc(Cl)c(OCCCN(C)C)c3)n2)CCCCC1 (as salt: hydrochloride) [Compound 1, methyl 1-{[(3,5-dichloro-2′-{4-chloro-3-[3-(dimethylamino)propoxy]phenyl}-2,3′-bipyridin-6′-yl)carbonyl]amino}cyclohexanecarboxylate]
6 | 152 °C | CNC(=O)C[C@H](NC(=O)c1ccc(-c2ccccc2C)c(-c2ccc(Cl)c(OCCCN(C)C)c2)n1)C(C)(C)C (as salt: hydrochloride) [Compound 33, 6-{4-chloro-3-[3-(dimethylamino)propoxy]phenyl}-N-{(1S)-2,2-dimethyl-1-[2-(methylamino)-2-oxoethyl]propyl}-5-(2-methylphenyl)pyridine-2-carboxamide]
